# Assay results published in article PMC7077228 (Viruses, 2020).
# Where a name gives a salt, the structure may show the parent alone. Read-outs that look alike come from different tables or passages of the source.
# Experiments:
# [1] = test system: H5N1 IAV (A/Duck/Guangdong/99); test: microbe, parasite or virus in culture; format: cell-based, influenza A virus
# A549 cells = test: MTT cytotoxicity assay; conditions: for CC50: MTT, 24 h of compound treatment
# [2] = test system: PR8 (H1N1) IAV (A/Puerto Rico/8/34); test: microbe, parasite or virus in culture; format: cell-based; conditions: Influenza A virus, A549
# [3] = test system: H9N2 IAV (A/Chicken/Guangdong/16/1996); test: microbe, parasite or virus in culture; format: cell-based; conditions: Influenza A virus, H9N2, A549, in Gallus gallus
# [4] = test system: H3N2 IAV (A/Guangdong/Dongguan/1100/2006); test: microbe, parasite or virus in culture; format: cell-based; conditions: Influenza A virus, H3N2, A549
# [5] = test system: IAV (H1N1, H5N1, H9N2 and H3N2); test: microbe, parasite or virus in culture; format: cell-based, influenza A virus
# H5N1 IAV [6] = format: cell-based, influenza A virus
# H5N1 IAV [7] = format: cell-based, influenza A virus; remark: listed apart in the source
# H5N1 IAV [8] = format: cell-based, influenza A virus; remark: listed apart in the source
# [9] = test system: A/Duck/Guangdong/99(H5N1) HA; format: cell-based, influenza A virus
# [10] = target: Recombinant influenza HA protein from A/Vietnam/1203/2004 (H5N1) (Influenza A virus (A/Vietnam/1203/2004(H5N1)), UniProt Q5EP31); test: biochemical; format: binding
# [11] = target: FKBP12 (FK506 binding protein 1A, 12 kDa) (Homo sapiens, UniProt P62942)
# [12] = test system: H5N1 IAV HA-induced hemolysis; test: microbe, parasite or virus in culture; format: cell-based; conditions: Influenza A virus, H5N1, in Gallus gallus, pH 5.2, read-out: IC50 hemolysis inhibition
# H5N1 IAV [13] = format: cell-based, influenza A virus; remark: listed apart in the source
# Chain of FKBP12 (FK506 binding protein 1A, 12 kDa) (P62942 whole entry): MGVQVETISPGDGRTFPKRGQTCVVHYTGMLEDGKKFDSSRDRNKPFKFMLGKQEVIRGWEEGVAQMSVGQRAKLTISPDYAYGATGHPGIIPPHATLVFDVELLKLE
smiles,measurement,setting,value
"CC1(C)CC[C@]2(C(=O)O)CC[C@]3(C)C(=CC[C@@H]4[C@@]5(C)CC[C@H](O)C(C)(C)[C@@H]5CC[C@]43C)[C@@H]2C1 [OA-0, oleanolic acid]",EC50,[1],14.2 ± 1.9 µM
same,"SI (selectivity index), ratio of CC50 to EC50",[1],4.7
same,EC50,"[1]; Influenza A virus, H5N1, A549",≤ 14.2 µM
same,CC50,A549 cells,67.4 ± 4.8 µM
same,CC50,A549 cells; listed as oleanolic acid,≥ 31.1 µM
CNC(=O)[C@]12CCC(C)(C)C[C@H]1C1=CC[C@@H]3[C@@]4(C)CC[C@H](O[C@@H]5O[C@H](CO)[C@@H](O[C@@H]6O[C@@H](C)[C@H](O)[C@@H](O)[C@H]6O)[C@H](O)[C@H]5O[C@@H]5O[C@@H](C)[C@H](O)[C@@H](O)[C@H]5O)C(C)(C)[C@@H]4CC[C@@]3(C)[C@]1(C)CC2 [OA-10],"SI (selectivity index), ratio of CC50 to EC50",[1],>45
same,EC50,"[1]; Influenza A virus, H5N1, A549",14 ± 2.3 µM
same,EC50,[2],6.7 ± 1.4 µM
same,EC50,[3],15.3 ± 2.5 µM
same,EC50,[4],19.6 ± 3.7 µM
same,"progeny virus titer on PR8, H9N2 and H3N2 infection",[5],reduced progeny virus titer
same,EC50,"[5]; Influenza A virus, H1N1|H3N2|H5N1|H9N2, A549, read-out: EC50 range across IAV subtypes",6.7 to 19.6 µM
same,H5N1 IAV NP RNA levels,H5N1 IAV [6],significantly inhibited
same,reduction in progeny virus production,H5N1 IAV [6],1.8 log
same,effect on IAV infection after co-incubation at 4 °C (virus binding),H5N1 IAV [7],did not affect IAV infection
same,effect of combination on progeny virus titer and NP production,H5N1 IAV [8],synergistic effect
same,"progeny virus yield and NP protein expression, co-treatment",H5N1 IAV [8],mild but significant reduction
same,"progeny virus yield and viral NP production, pre-treatment",H5N1 IAV [8],did not reduce progeny virus yield and viral NP production
same,"progeny virus yield, post-treatment",H5N1 IAV [8],one log reduction
same,inhibition of HA adsorption to chicken RBCs,[9],did not inhibit HA adsorption to chicken RBCs
same,inhibition of H5N1 virus adsorption to chicken RBCs,[9]; concentrations ≥40 µM,partially blocked
same,Kd,[10],2.98 pM
same,interaction with negative control protein,[11],did not interact
same,IC50,[12],26 µM
same,cytotoxicity at concentrations ≤ 80 µM,"A549 cells; after 24, 48 or 72 h of treatment",No obvious cytotoxicity
"CCOC(=O)c1c(CSc2ccccc2)n(C)c2cc(Br)c(O)c(CN(C)C)c12 [arbidol, Arbidol hydrochloride, reference compound]",IC50,[12],51 µM
"CCC(CC)[C@H](NC(C)=O)[C@@H]1[C@H](O)[C@@H](C(=O)O)C[C@H]1N=C(N)N [peramivir, Peramivir, reference compound]",inhibition on IAV infections (positive control),H5N1 IAV [6],significant inhibition
same,"progeny virus yield and NP protein expression, co-treatment",H5N1 IAV [8],more significant inhibition
same,"progeny virus yield, post-treatment",H5N1 IAV [8],more significant inhibition
"NC(=O)c1ncn([C@@H]2O[C@H](CO)[C@@H](O)[C@H]2O)n1 [ribavirin, Ribavirin hydrochloride, reference compound]","progeny virus yield, post-treatment",H5N1 IAV [8],inhibition only in the post-treatment mode
same,"inhibition of viral replication, compound added after 4 hpi",H5N1 IAV [13],no inhibition
